Results: patent US7030135B2, “Inhibitors of 11-β-hydroxy steroid dehydrogenase type 1” (Biovitrum AB, priority 2000, dated 2006)

Columns and labels:
[1] = target: T1, human 11-β-hydroxysteroid dehydrogenase type-1 enzyme (11-β-HSD1) (Homo sapiens, UniProt P28845); test: 11-β-HSD1 enzyme scintillation proximity assay; format: biochemical; settings: human 11-β-HSD1 expressed in Pichia pastoris; Ki calculated from IC50 (Cheng-Prusoff)
T1 construct: made in house; host or cells: Pichia pastoris
Description: [1,2(n)-^3H]-cortisone was purchased from Amersham Pharmacia Biotech. Anti-cortisol monoclonal mouse antibody, clone 6D6.7 was obtained from Immunotech and Scintillation proximity assay (SPA) beads coated with monoclonal antimouse antibodies were from Amersham Pharmacia Biotech. NADPH, tetrasodium salt was from Calbiochem and glucose-6-phosphate (G-6-P) was supplied by Sigma The human 11-β-hydroxysteroid dehydrogenase type-1 enzyme (11-β-HSD1) was expressed in Pichia pastoris. 18-β-glycyrhetinic acid (GA) was obtained from Sigma. The serial dilutions of the compounds were performed on a Tecan Genesis RSP 150. […]
The multiplication of plates was done on a WallacQuadra. The amount of the product [^3H]-cortisol, bound to the beads was determined in a Packard, Top Count microplate liquid scintillation counter. […]
The plates were covered with plastic film and incubated on a shaker for 30 minutes, at room temperature, before counting. The amount of [^3H]-cortisol, bound to the beads was determined in a microplate liquid scintillation counter.
The calculation of the Ki values for the inhibitors was performed by use of Activity Base. The Ki value is calculated from IC50 and the Km value is calculated using the Cheng Prushoff equation (with reversible inhibition that follows the Michaelis-Menten equation): […] [Cheng, Y. C.; Prushoff, W. H. Biochem. Pharmacol. 1973, 22, 3099–3108]. […]

bone nodule formation = settings: cited from earlier work

T1 sequence (P28845 whole entry): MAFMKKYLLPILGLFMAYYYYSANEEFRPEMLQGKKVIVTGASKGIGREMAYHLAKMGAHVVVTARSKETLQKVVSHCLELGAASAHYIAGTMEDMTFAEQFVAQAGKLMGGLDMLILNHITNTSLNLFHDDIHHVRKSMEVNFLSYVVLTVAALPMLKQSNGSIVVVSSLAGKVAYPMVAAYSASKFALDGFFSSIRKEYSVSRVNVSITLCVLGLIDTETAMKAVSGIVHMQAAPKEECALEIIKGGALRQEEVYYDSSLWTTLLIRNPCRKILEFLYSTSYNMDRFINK

Row | SMILES | Ki [1] | negative glucocorticoid effect on bone nodule formation (bone nodule formation)
1 | Cc1cc(Cl)cc(Cl)c1S(=O)(=O)Nc1nc2c(s1)C(=O)CC(C)(C)C2 [Example 8, 2,4-Dichloro-N-(5,5-dimethyl-7-oxo-4,5,6,7-tetrahydro-1,3-benzothiazol-2-yl)-6-methylbenzenesulfonamide.] | 28 nM | 
2 | Cc1cc(Br)ccc1S(=O)(=O)Nc1nc2c(s1)C(=O)CC(C)C2 (stereo not drawn) [Example 16, 4-Bromo-2methyl-N-(5methyl-7-oxo-4,5,6,7-tetrahydro-1,3-benzothiazol-2-yl)benzenesulfonamide] | 227 nM | 
3 | CC1(C)[C@@H](OC(=O)CCC(=O)O)CC[C@]2(C)[C@H]3C(=O)C=C4[C@@H]5C[C@@](C)(C(=O)O)CC[C@]5(C)CC[C@@]4(C)[C@]3(C)CC[C@@H]12 [carbenoxolone] |  | could be blocked
